Laboratory results from US9708323B2, “Tricyclic compounds as alpha-7 nicotinic acetylcholine receptor ligands” (BRISTOL-MYERS SQUIBB COMPANY, priority 2014, dated 2017).
Like-named read-outs stand apart in the source and are kept apart here.

Target: T1, α-7 nicotinic ACh receptor ion channel expressed in HEK 293 cells (Rattus norvegicus, UniProt Q05941)
T1 construct: expressed in transfected cells
Assay: Ca2+-sensitive, fluorescence-based assay for α-7 nicotinic acetylcholine receptor channel function in mammalian cells (FLIPR)
Assay type: cell-based
Conditions: read-out: FLIPR α7 (EC50)
Method: II) A Ca^2+-Sensitive, Fluorescence-Based Assay α-7 for Nicotinic Acetylcholine Receptor Channel Function in Mammalian Cells (“FLIPR”). Summary:
Lead compounds are evaluated for agonist activity at α-7, α3β4, α4αβ2, and α1β1δ1ε sub-types of nicotinic ACh receptor ion channels expressed in mammalian HEK 293 cells. Agonist potency and efficacy values are determined from kinetic fluorescence Ca^2+ influx measurements made using a 384 well FLIPR (Fluorescence Image Plate Reader). The utility of fluorescent indicators for measuring changes in intracellular divalent cation concentrations, particularly Ca^2+, for drug discovery endeavors is well documented (Rudiger, R., et al., Nature Reviews, 2003, 4:579-586; Gonzalez J. E., et al., Receptors and Channels, 2002, 8:283-295). In this assay, channel expressing HEK cell lines seeded in 384 well assay plates are loaded with a membrane permeant fluorescent Ca^2+ indicator dye, whose 510 nm green emission signal increases in response to elevation of intracellular Ca^2+ concentration. The basal fluorescence from the cells is monitored in real time, followed by the acute addition of test compounds. If the compound is an agonist at any of the non-selective cation channels, the latter open and allow the movement of extracellular Ca^2+ ions into the cell cytoplasm, where they bind to the Ca^2+ indicator dye, and produce an increase in fluorescence output signal, which is detected by a cooled CCD imaging camera.
Reagents: The acetomethoxy (AM) ester of the Ca^2+ indicator dye Fluo-4 was obtained from InVitrogen, (Carlsbad, Calif.). Acetylcholine and all buffer constituents were purchased from Sigma Chemical Company, St. Louis, Mo. G418 and Minimal Essential Medium were purchased from InVitrogen Life Technologies, Carlsbad, Calif. Fetal bovine serum was purchased from (InVitrogen, Carlsbad, Calif.).
HEK-293 cells were grown in Minimal Essential Medium containing 10% (v/v) fetal bovine serum at 37° C. in a 5% CO2 incubator. HEK-293 cells stably expressing the ion channels were grown in the same medium with the addition of 500 μg/ml G418.
HEK-293 cells expressing the ion channels of interest were plated in 384 well, black-walled, clear-bottomed, poly-D-lysine coated plates at a density of ˜20,000 cells/well in 20 μl of Minimal Essential Medium containing 10% (v/v) fetal bovine serum and incubated for 2 days at 29° C. in a 5% CO2 incubator. Prior to assay, cells were loaded with the Fluo-4 AM ester. Cell loading was accomplished by removing the culture medium and replacing it with 30 μl/well of the AM ester of the dye (5 μM) mixed with Hanks Balanced Salt Solution (#14175-095) containing 20 mM HEPES, 2.5 mM probenecid, 0.5 mM CaCl2, 1 mM MgCl2 and 10 μM atropine. Dye loading was allowed to proceed for 90 minutes at room temperature at which time the dye loading solution was removed and replaced with 40 μl/well of Hanks buffer. Cells loaded with dye were loaded onto a FLIPR384 (Molecular Devices, Sunnyvale, Calif.). Fluo-4 dye was excited using the 488 nm line of an argon laser. Emission was filtered using a 540+/−30 nm bandpass filter. For evaluation of the effects of test compounds using the Ca^2+ flux assay, compounds to be tested were provided in assay ready plates. For nicotinic receptor ion channel expressing cells, the assay was initiated by the addition of 20 μl/well of Hanks buffer containing test compounds. For all assays, data were collected at 1 Hz for 10 seconds (baseline), at which time the compound containing stimulus buffers are added, and further measurements collected at 0.33 Hz for 3 min.
The statistical robustness of the nicotinic receptor Ca^2+ flux assays is determined from blanks and totals wells. The totals wells define maximal channel activation for each compound test plate (Maximum efficacious dose of acetylcholine), and the blanks wells which contain matched DMSO only, define zero channel activation. […]

T1 sequence (Q05941 23-502): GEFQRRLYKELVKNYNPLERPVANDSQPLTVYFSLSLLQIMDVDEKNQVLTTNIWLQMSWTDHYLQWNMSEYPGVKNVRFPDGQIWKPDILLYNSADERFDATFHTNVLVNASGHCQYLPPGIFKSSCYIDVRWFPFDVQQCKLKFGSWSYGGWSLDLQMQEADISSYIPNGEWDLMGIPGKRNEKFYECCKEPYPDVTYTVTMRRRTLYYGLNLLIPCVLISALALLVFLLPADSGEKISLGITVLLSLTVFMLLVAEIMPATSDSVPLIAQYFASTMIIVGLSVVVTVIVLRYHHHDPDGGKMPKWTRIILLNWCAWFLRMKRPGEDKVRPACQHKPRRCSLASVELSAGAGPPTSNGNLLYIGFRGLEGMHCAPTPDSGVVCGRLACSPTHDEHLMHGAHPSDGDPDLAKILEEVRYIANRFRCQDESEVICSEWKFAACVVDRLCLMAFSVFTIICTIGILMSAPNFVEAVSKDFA

SMILES | EC50 (Table 1, agonist Ca2+ flux) | also measured
O=C(c1c[nH]c2ncccc12)N1CC2CN3CCC2C1C3 (centres unmarked) [Example 55] | > 100 µM | –
O=C(c1n[nH]c2ccc(Cl)cc12)N1C[C@H]2C[N@]3CC[C@H]2[C@H]1C3 [Example 92, ((3R,3aR,6S,7aS)-hexahydro-3,6-methanopyrrolo[2,3-c]pyridin-1(2H)-yl)(5-chloro-1H-indazol-3-yl)methanone] | – | EC50 (Table 2, agonist Ca2+ flux): 0.7 µM
O=C(c1nsc2ccccc12)N1C[C@@H]2C[N@@]3CC[C@@H]2[C@@H]1C3 [Example 111, benzo[d]isothiazol-3-yl((3S,3aS,6R,7aR)-hexahydro-3,6-methanopyrrolo[2,3-c]pyridin-1(2H)-yl)methanone] | – | EC50 (Table 3, agonist Ca2+ flux): 36 µM
Cc1ccc2c(Cl)c(C(=O)N3CC4CN5CCC4C3C5)sc2c1 (centres unmarked) [Example 68] | > 100 µM | –
COc1ccc2c(C(=O)N3C[C@@H]4C[N@@]5CC[C@@H]4[C@@H]3C5)n[nH]c2c1 [Example 104, ((3S,3aS,6R,7aR)-hexahydro-3,6-methanopyrrolo[2,3-c]pyridin-1(2H)-yl)(6-methoxy-1H-indazol-3-yl)methanone] | – | EC50 (Table 3, agonist Ca2+ flux): > 100 µM
Cc1cc(C(=O)N2CC3CN4CCC3C2C4)on1 (centres unmarked) [Example 64] | > 100 µM | –
CSc1sc(C(=O)N2CC3CN4CCC3C2C4)c2c1C=CCC2 (centres unmarked) [Example 83] | > 100 µM | –
O=C(c1cc(-c2ccc(Br)cc2)cs1)N1CC2CN3CCC2C1C3 (centres unmarked) [Example 69] | > 100 µM | –
Cn1cc(C(=O)N2C[C@@H]3C[N@@]4CC[C@@H]3[C@@H]2C4)c2ccccc21 [Example 102, ((3S,3aS,6R,7aR)-hexahydro-3,6-methanopyrrolo[2,3-c]pyridin-1(2H)-yl)(1-methyl-1H-indol-3-yl)methanone] | – | EC50 (Table 3, agonist Ca2+ flux): > 100 µM
O=C(c1sc2ccccc2c1Cl)N1CC2CN3CCC2C1C3 (centres unmarked) [Example 67] | > 100 µM | –
O=C(c1cc2cccc(Cl)c2s1)N1C[C@H]2C[N@]3CC[C@H]2[C@H]1C3 [Example 96, 7-chlorobenzo[b]thiophen-2-yl((3R,3aR,6S,7aS)-hexahydro-3,6-methanopyrrolo[2,3-c]pyridin-1(2H)-yl)methanone] | – | EC50 (Table 2, agonist Ca2+ flux): > 100 µM
O=C(c1n[nH]c2ccccc12)N1C2CC3CC1CN(C3)C2 [Example 115, 1,4-diazaadamantan-4-yl(1H-indazol-3-yl)methanone] | – | EC50 (Table 5, agonist Ca2+ flux): 0.073 µM
O=C(c1sccc1Cl)N1CC2CN3CCC2C1C3 (centres unmarked) [Example 26] | > 100 µM | –
O=C(c1cccc(Cl)n1)N1CC2CN3CCC2C1C3 (centres unmarked) [Example 35] | > 100 µM | –
O=C(c1nsc2ccccc12)N1C[C@H]2C[N@]3CC[C@H]2[C@H]1C3 [Example 97, benzo[d]isothiazol-3-yl((3R,3aR,6S,7aS)-hexahydro-3,6-methanopyrrolo[2,3-c]pyridin-1(2H)-yl)methanone] | – | EC50 (Table 2, agonist Ca2+ flux): 30 µM
O=C(c1cc2ccccc2s1)N1C[C@@H]2C[N@@]3CC[C@@H]2[C@@H]1C3 [Example 100, benzo[b]thiophen-2-yl((3S,3aS,6R,7aR)-hexahydro-3,6-methanopyrrolo[2,3-c]pyridin-1(2H)-yl)methanone] | – | EC50 (Table 3, agonist Ca2+ flux): 11 µM
COc1ccc2[nH]nc(C(=O)N3C[C@@H]4C[N@@]5CC[C@@H]4[C@@H]3C5)c2c1 [Example 110, ((3S,3aS,6R,7aR)-hexahydro-3,6-methanopyrrolo[2,3-c]pyridin-1(2H)-yl)(5-methoxy-1H-indazol-3-yl)methanone] | – | EC50 (Table 3, agonist Ca2+ flux): > 100 µM
O=C(c1cc2nccnc2s1)N1CC2CN3CCC2C1C3 (centres unmarked) [Example 75] | > 100 µM | –
O=C(c1cc2c(Cl)cccc2s1)N1C[C@H]2C[N@]3CC[C@H]2[C@H]1C3 [Example 94, 4-chlorobenzo[b]thiophen-2-yl((3R,3aR,6S,7aS)-hexahydro-3,6-methanopyrrolo[2,3-c]pyridin-1(2H)-yl)methanone] | – | EC50 (Table 2, agonist Ca2+ flux): > 100 µM
COc1ccc2c(C(=O)N3C[C@H]4C[N@]5CC[C@H]4[C@H]3C5)n[nH]c2c1 [Example 93, ((3R,3aR,6S,7aS)-hexahydro-3,6-methanopyrrolo[2,3-c]pyridin-1(2H)-yl)(6-methoxy-1H-indazol-3-yl)methanone] | – | EC50 (Table 2, agonist Ca2+ flux): 2.2 µM
Cc1c(C(=O)N2CC3CN4CCC3C2C4)sc2ccc(Cl)cc12 (centres unmarked) [Example 86] | > 100 µM | –

SMILES | EC50 (Table 1, agonist Ca2+ flux) | also measured
O=C(c1ccccc1)N1CC2CN3CCC2C1C3 (centres unmarked) [Example 3, (hexahydro-3,6-methanopyrrolo[2,3-c]pyridin-1(2H)-yl)(phenyl)methanone] | > 100 µM | –
O=C(c1n[nH]c2cc(Cl)ccc12)N1C[C@@H]2C[N@@]3CC[C@@H]2[C@@H]1C3 [Example 109, ((3S,3aS,6R,7aR)-hexahydro-3,6-methanopyrrolo[2,3-c]pyridin-1(2H)-yl)(6-chloro-1H-indazol-3-yl)methanone] | – | EC50 (Table 3, agonist Ca2+ flux): > 100 µM
O=C(c1cc(Br)cs1)N1CC2CN3CCC2C1C3 (centres unmarked) [Example 59] | > 100 µM | –
O=C(c1cc(-c2ccc(Cl)cc2)cs1)N1CC2CN3CCC2C1C3 (centres unmarked) [Example 84] | > 100 µM | –
O=C(c1cc(Cl)ccn1)N1CC2CN3CCC2C1C3 (centres unmarked) [Example 37] | > 100 µM | –
O=C(c1snc(Cl)c1Cl)N1CC2CN3CCC2C1C3 (centres unmarked) [Example 76] | > 100 µM | –
O=C(c1n[nH]c2ccccc12)N1C[C@@H]2C[N@@]3CC[C@@H]2[C@@H]1C3 [Example 87, ((3S,3aS,6R,7aR)-hexahydro-3,6-methanopyrrolo[2,3-c]pyridin-1(2H)-yl)(1H-indazol-3-yl)methanone] | – | EC50 (Table 3, agonist Ca2+ flux): 0.37 µM
O=C(c1sc2cccc(F)c2c1Cl)N1CC2CN3CCC2C1C3 (centres unmarked) [Example 85] | > 100 µM | –
Cc1cc(C(=O)N2CC3CN4CCC3C2C4)oc1C (centres unmarked) [Example 70] | > 100 µM | –
O=C(c1n[nH]c2ccccc12)N1CC2CN3CCC2C1C3 (centres unmarked) [Example 2, (hexahydro-3,6-methanopyrrolo[2,3-c]pyridin-1(2H)-yl)(1H-indazol-3-yl)methanone] | 0.25 µM | –
O=C(c1ccns1)N1CC2CN3CCC2C1C3 (centres unmarked) [Example 78] | > 100 µM | –
CC(C)c1cc(C(=O)N2CC3CN4CCC3C2C4)on1 (centres unmarked) [Example 58] | > 100 µM | –
O=C(c1n[nH]c2ccc(Cl)cc12)N1C[C@@H]2C[N@@]3CC[C@@H]2[C@@H]1C3 [Example 103, ((3S,3aS,6R,7aR)-hexahydro-3,6-methanopyrrolo[2,3-c]pyridin-1(2H)-yl)(5-chloro-1H-indazol-3-yl)methanone] | – | EC50 (Table 3, agonist Ca2+ flux): > 100 µM
Cn1nc2ccccc2c1C(=O)N1CC2CN3CCC2C1C3 (centres unmarked) [Example 54] | > 100 µM | –
O=C(c1n[nH]c2ccc(Br)cc12)N1C[C@@H]2C[N@@]3CC[C@@H]2[C@@H]1C3 [Example 105, ((3S,3aS,6R,7aR)-hexahydro-3,6-methanopyrrolo[2,3-c]pyridin-1(2H)-yl)(5-bromo-1H-indazol-3-yl)methanone] | – | EC50 (Table 3, agonist Ca2+ flux): > 100 µM
COc1cccc2[nH]nc(C(=O)N3C[C@@H]4C[N@@]5CC[C@@H]4[C@@H]3C5)c12 [Example 107, ((3S,3aS,6R,7aR)-hexahydro-3,6-methanopyrrolo[2,3-c]pyridin-1(2H)-yl)(4-methoxy-1H-indazol-3-yl)methanone] | – | EC50 (Table 3, agonist Ca2+ flux): 30 µM
O=C(c1noc2ccccc12)N1CC2CN3CCC2C1C3 (centres unmarked) [Example 81] | 8 µM | –
Cn1nc(C(=O)N2C[C@@H]3C[N@@]4CC[C@@H]3[C@@H]2C4)c2ccccc21 [Example 101, ((3S,3aS,6R,7aR)-hexahydro-3,6-methanopyrrolo[2,3-c]pyridin-1(2H)-yl)(1-methyl-1H-indazol-3-yl)methanone] | – | EC50 (Table 3, agonist Ca2+ flux): > 100 µM
O=C(c1sc2cccc(Cl)c2c1Cl)N1CC2CN3CCC2C1C3 (centres unmarked) [Example 79] | > 100 µM | –
O=C(c1cc(-c2ccccc2)cs1)N1CC2CN3CCC2C1C3 (centres unmarked) [Example 66] | > 100 µM | –
